Data on 3 molecules can be found in patent US20140155371A1, “MULTICOMPONENT CRYSTALLINE SYSTEM OF EZETIMIBE AND PROLINE” (BASF SE, priority 2011, published 2014).

The nature of data set [1]: Dynamic (water) vapor sorption (DVS). The data set is classed as physicochemical. An excerpt: Dynamic (water) vapor sorption (DVS) is a method well known in the art to monitor the adsorption of water on a solid material. Therefore, DVS is a suitable method to determine the hygroscopic nature of a pharmaceutical active ingredient.
The crystalline form A described in WO 06/060808 (i.e. the free base) and the present composition (as obtained in example 3 further below) are subjected to a DVS experiment; results are shown in FIG. 4 and in the below Table 1. The crystalline composition is less prone to water uptake under humidity, and is easy to formulate compared to the crystalline anhydrous (“free base”) form of Ezetimibe (see Table 1).
Dynamic (water) vapour sorption (DVS) is performed with a Surface Measurement Systems Ltd. DVS-1 water sorption analyzer or with SPS11-100n moisture sorption instrument from Projekt Meβtechnik, Ulm, Germany.
Program: The relative humidity is kept at starting value of 0% for 5 hours, then continuously scanned from 0% to 60%, kept constant at 60% for 4 hours, and then scanned to 0% relative humidity, and kept constant for 4 hours. The scanning change rate of relative humidity is 5% per hour.

In a further data set the test system is LDL levels. Particulars: Ezetimibe added to statin therapy; compared with 6% by doubling the dose of statins; cited from earlier work.

Regarding `O=C1[C@H](CC[C@H](O)c2ccc(F)cc2)[C@@H](c2ccc(O)cc2)N1c1ccc(F)cc1` [1-(4-Fluorophenyl)-3(R)-[3-(4-fluorophenyl)-3(S)-hydroxypropyl]-4(S)-(4-hydroxyphenyl)azetidin-2-one], in data set [1] (after 4 h at 60% r.h.), the “Water vapor sorption: water content after 4 h at 60% r.h.” value stood at 4.3%. The “Water vapor sorption: water content after 10 h at 50% r.h.” value in data set [1] (after 10 h at 50% r.h.) is 4.0%. For the same molecule, the water uptake entry in data set [1] (at 60% relative humidity, FIG. 4) is listed as “about 4.3%”. Besides, in data set [1] (increasing ambient humidity, FIG. 4 dashed line), the “relative humidity at which hydrate formation starts” value is recorded as “about 50%”.
Take `O=C1[C@H](CC[C@H](O)c2ccc(F)cc2)[C@@H](c2ccc(O)cc2)N1c1ccc(F)cc1` [Ezetimibe, 1-(4-Fluorophenyl)-3(R)-[3-(4-fluorophenyl)-3(S)-hydroxypropyl]-4(S)-(4-hydroxyphenyl)azetidin-2-one]: the “reduction in LDL levels” value in the data set on LDL levels is 15%.
Turning to `O=C1[C@H](CC[C@H](O)c2ccc(F)cc2)[C@@H](c2ccc(O)cc2)N1c1ccc(F)cc1` [hydrate form], in data set [1] (decreasing humidity, FIG. 4), the “relative humidity below which the hydrate begins to lose water” value is “about 25%”.
